Experimental data from patent publication US20190070268A1, “ABUSE-DETERRENT PHARMACEUTICAL COMPOSITIONS” (priority 2016, published 2019).

Experiments:
pepsin = biological target: T1, pepsin (Sus scrofa, UniProt P00791); assay: Pepsin digestion assay in simulated gastric fluid with SDS-PAGE; type: in vitro ADME; settings: SGF pH 1.2 with pepsin, 37° C.
T1 construct: purchased Sigma-Aldrich (US) P7000
Experimental: SGF contains 0.084 M HCl, 0.035 M NaCl, 4000 U of pepsin per reaction mixture and has a pH level of 1.2 according to the United States Pharmacopeia (1995). A ratio of 10000 Units of pepsin activity to 1 mg of test protein was used throughout the assay, which is based on an evaluation of the average activity of pepsin recommended in the United States Pharmacopeia (24th edition, 2000) with some modifications. Pepsin (ref. #P7000) was purchased from Sigma-Aldrich (US). All proteins that were used were dissolved in 50 mM Tris-HCl (pH 9.5) at a concentration of 5 mg mL^−1. The reaction mixture contained 1.52 mL of SGF preheated to 37° C. before the addition of 0.08 mL of protein solution (Thomas et al., 2004). The mixture was placed into a thermomixer at 37° C. and was shaken at 400 rpm. For denaturating SDS-polyacrylamide gel electrophoresis (SDS-PAGE) analysis samples of 160 μl were removed at 0 minutes, 0.5 minutes, and 15 minutes after initiation.
SDS-PAGE was performed to analyze and visually inspect stained protein bands whether the protein band is still intact or fragmented after the digestion assay. […]
Each 160 μl of the digestion samples was quenched by adding 56 μl of 200 mM NaHCO3 as neutralization step and 56 μl 4× Laemmli (Laemmli 1970) buffer for electrophoresis. Samples were immediately heated up to 99° C. for 10 minutes and analyzed directly or stored at −20° C. […]

laccase = assay: Thin layer chromatography of enzymatic conversion; type: biochemical; settings: samples at 2, 10, 30, 60, 120 minutes
[1] = tested on: laccase from Myceliophthora thermophila (MtL); assay: Polymerization of morphine with laccase from Myceliophthora thermophila (high concentrations); type: biochemical; settings: MTL 10 U to 100 U, 50 mM sodium phosphate buffer pH 7
Experimental: The reactions were carried out in 50 mM sodium phosphate buffer pH 7.

[2] = tested on: laccase from Myceliophthora thermophila (MtL); assay: Oxygen measurement of laccase catalysed oxidation of opioids (MtL); type: biochemical; settings: 10 U/ml MtL, 2 mg/ml substrate, distilled water, room temperature
Excerpt: (§1) Laccases use oxygen as electron acceptor, consequently the oxygen concentration decreases upon substrate oxidation.

[3] = tested on: laccase from Trametes villosa (TvL); assay: Oxygen measurement of laccase catalysed oxidation of opioids (TvL); type: biochemical; settings: 10 U/ml TvL, 2 mg/ml substrate, distilled water; for oxygen concentration in solution upon laccase oxidation: room temperature
Excerpt: as §1

laccase mediator system [4] = assay: Laccase mediator system and methadone, oxygen measurement; type: biochemical; settings: mediator ABTS (best effect)
Experimental: (§2) During the reaction oxygen acts as electron acceptor and is reduced to water by laccases while the mediators are oxidized. The concentration of oxygen was measured as described above. Oxygen is consumed until the mediator is fully oxidized. […] The second step of the reaction is initiated by addition of the target substrate, which is consequently oxidized by the mediators.
(§3) In the present experiments the final reaction mixtures contained 0.2 to 6 mM mediator, 1-10 units of laccase per ml and 100-3000 mg L^−1 opioid.
For methadone, oxygen measurements were done, but with an extended palette of mediators: In addition to the aforementioned mediators, syringic acid, TEMPO, syringol and ABTS were tested.

[5] = tested on: Humicola insolens cutinase (HiC); type: biochemical
[6] = biological target: T2, Thermobifida cellulosilytica cutinase 1 (THC) (Thermobifida cellulosilytica, UniProt E9LVH8); type: biochemical
T2 construct: made in house
T2 sequence (E9LVH8 1-262): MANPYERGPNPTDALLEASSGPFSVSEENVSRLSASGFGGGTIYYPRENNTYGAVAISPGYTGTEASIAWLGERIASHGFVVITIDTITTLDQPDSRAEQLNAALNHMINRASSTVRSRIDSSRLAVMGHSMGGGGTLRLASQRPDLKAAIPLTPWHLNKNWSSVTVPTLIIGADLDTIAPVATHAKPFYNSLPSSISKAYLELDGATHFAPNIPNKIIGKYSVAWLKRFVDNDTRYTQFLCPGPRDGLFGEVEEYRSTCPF

laccase mediator system [7] = assay: Laccase mediator system and oxycodone, oxygen concentration measurement; type: biochemical; settings: 10 units laccase/ml, 1000 mg/L oxycodone
Experimental: as §2, §3
The different mediators were used at concentrations of 2 mM with 10 units laccase ml^−1 and 1000 mgL^−1 oxycodone.

laccase mediator system [8] = assay: Laccase mediator system and oxycodone, HPLC-MS/TOF; type: biochemical
Experimental: The concentrations were determined with a liquid chromatography-electrospray ionization-time of flight (HPLC-ESI-TOF) mass spectrometer from Agilent (A1260 series, Agilent US). The substances contained in the samples were separated by a Zorbax Hilic Plus, 2.1×100 mm, 3.5 μm (Agilent, US) column. The gradient was set to 100% mobile phase A (65 mM ammonium formiate pH 3.2) with a flow rate of 0.4 mL min^−1 at 40° C. and changed to 100% mobile phase B (acetonitrile) in 15 minutes with an injection volume of 1 μL. The spectra were acquired over the m/z range from 100 to 3000 at a scan rate of two spectra per second. The standard curve for each opioid was performed with corresponding standards ranging from 0.001 to 50 mg L^−1.
In addition to the reactions shown in FIG. 17, the mediator vanillin was used at a higher concentration (6 mM). The results can be seen in FIG. 18 and FIG. 19. […] One of oxycodone's main degradation products, oxymorphone, was found in all samples. Oxymorphone is an impurity of oxycodone and is therefore present even in the controls where no laccase or mediator were used.

T1 sequence (P00791 60-385): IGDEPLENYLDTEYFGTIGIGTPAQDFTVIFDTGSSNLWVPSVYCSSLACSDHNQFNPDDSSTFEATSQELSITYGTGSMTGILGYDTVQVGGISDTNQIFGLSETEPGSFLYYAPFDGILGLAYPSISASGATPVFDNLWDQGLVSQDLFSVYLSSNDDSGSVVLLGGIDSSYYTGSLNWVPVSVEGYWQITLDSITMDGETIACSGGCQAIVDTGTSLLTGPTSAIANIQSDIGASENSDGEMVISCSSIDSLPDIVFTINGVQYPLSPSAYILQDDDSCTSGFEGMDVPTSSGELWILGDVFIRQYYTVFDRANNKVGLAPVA

HRP: horse radish peroxidase
proteolytic degradation (SDS-PAGE) (pepsin): very susceptible to proteolytic degradation

CN1CC[C@]23c4c5ccc(O)c4O[C@H]2[C@@H](O)C=C[C@H]3[C@H]1C5 [morphine]
time at which new dot(s) appear on TLC (new product) (laccase): 120 s
faster degradation of morphine with 10 times more laccase [1]: ~10 times

CC[C@@H](c1cccc(O)c1)[C@@H](C)CN(C)C [tapentadol]
oxygen concentration in solution upon laccase oxidation [2]: much slower
oxygen level to which the curve drops [3]: ~0%
oxygen concentration in solution upon laccase oxidation [3]: converts tapentadol better
time at which new dot(s) appear on TLC (new product) (laccase): 120 s
time at which the reference dot disappears on TLC (all converted) (laccase): 120 min

CCC(=O)C(CC(C)N(C)C)(c1ccccc1)c1ccccc1 (stereo not drawn) [methadone]
oxygen concentration after addition of the opioid (laccase mediator system [4]): decline in oxygen concentration

CC(=O)Oc1ccc2c3c1O[C@H]1[C@@H](OC(C)=O)C=C[C@H]4[C@@H](C2)N(C)CC[C@@]341 [diacetylmorphine]
DAM concentration [5]: declines
morphine concentration formed from DAM [5]: increased
diacetylmorphine hydrolyzed (total acetate yield, HPLC/RI) ([5]; pH 7): more than 50%
DAM concentration [6]: declines
morphine concentration formed from DAM [6]: increased
diacetylmorphine hydrolyzed (total acetate yield, HPLC/RI) ([6]; pH 7): more than 50%

COc1ccc2c3c1O[C@H]1C(=O)CC[C@@]4(O)[C@@H](C2)N(C)CC[C@]314 [oxycodone]
oxygen concentration in solution upon laccase oxidation [2]: not capable of converting oxycodone
oxygen concentration in solution upon laccase oxidation [3]: not capable of converting oxycodone
oxygen concentration after addition of the opioid (laccase mediator system [7]; mediator ethylvanillin 2 mM): drop in oxygen concentration
oxygen concentration after addition of the opioid (laccase mediator system [7]; mediator gallic acid 2 mM): no apparent effect
oxygen concentration after addition of the opioid (laccase mediator system [7]; mediator syringic acid 2 mM): drop in oxygen concentration
oxygen concentration after addition of the opioid (laccase mediator system [7]; mediator vanillin 2 mM): drop in oxygen concentration
oxycodone concentration (HPLC-MS/TOF) (laccase mediator system [8]; laccase mediator system, mediators at 2 mM, vanillin also 6 mM): decrease in oxycodone concentration was confirmed
effect on oxycodone (MS-TOF analysis) (laccase mediator system [8]; mediator gallic acid): no apparent effect
peak area of oxymorphone (degradation product) by MS-TOF (laccase mediator system [8]; oxycodone in combination with the laccase mediator system): increase in peak area of oxymorphone over time
